Source: patent publication US12187701B2, “Taire family kinase inhibitors and uses thereof” (Dana-Farber Cancer Institute, Inc., priority 2018, dated 2025)
Like-named read-outs stand apart in the source and are kept apart here.

Assays:
HCT116 cells = assay: Antiproliferation assay, Cell Titer Glo, 72 hours; type: cell-based
Outline: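 Luminescent CellTiter-Glo read-out after 72 h compound exposure (four-fold dilutions, 37 °C, 5% CO2) of HCT116 cells plated at 750 cells/well in McCoy's 5A + 10% FBS. Biological quadruplicates; IC50 from non-linear curve fitting.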

Cdk14 [1] = biological target: T1, Cdk14 (Homo sapiens (Human), UniProt O94921); assay: Cellular pull down with biotinylated probe, CDK14; type: cell-based; details: HEK293 cells overexpressing Cdk14-flag, 4 hours treatment; for Cellular Potency by Pulldown: some cells print Y or N instead of a concentration;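 as to all read-outs here: biotinylated probe used at 1 µM in lysates overnight at 4 °C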
Protocol: HEK293 cells overexpressing a Cdk14-flag fusion protein were treated with candidate compounds for 4 hours. Cells were washed with PBS, harvested and lysed in Pierce IP buffer with protease and phosphatase inhibitors (Roche). […] To enhance pulldown, lysates were incubated at room temperature for an additional 2 hours. […] Beads were then washed 3 times with Pierce IP buffer, then boiled at 95° C. for 5 minutes in 2× LDS+10% β-mercaptoethanol. Proteins of interest engaged by the biotinylated compound were then assessed using western blotting.
Target sequence in this assay (O94921 whole entry, the tested form may be a part): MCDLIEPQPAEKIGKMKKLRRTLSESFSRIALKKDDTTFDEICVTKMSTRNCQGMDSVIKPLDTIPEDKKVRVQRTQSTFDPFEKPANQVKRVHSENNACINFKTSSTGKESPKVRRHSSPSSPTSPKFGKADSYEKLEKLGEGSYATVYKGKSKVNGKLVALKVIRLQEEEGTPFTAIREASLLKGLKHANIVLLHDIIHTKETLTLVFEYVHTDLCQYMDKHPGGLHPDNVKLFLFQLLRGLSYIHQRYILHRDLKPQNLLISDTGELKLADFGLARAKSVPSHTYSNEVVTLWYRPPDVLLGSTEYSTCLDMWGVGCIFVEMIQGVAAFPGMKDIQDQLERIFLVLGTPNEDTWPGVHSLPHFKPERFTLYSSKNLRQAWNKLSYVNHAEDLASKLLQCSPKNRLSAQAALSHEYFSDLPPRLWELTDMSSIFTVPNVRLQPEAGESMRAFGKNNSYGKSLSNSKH

CDK2/CycA = CDK2/CycA (Homo sapiens (Human), UniProt P24941); assay: Z'LYTE kinase assay for CDK2/CycA at Km ATP; type: biochemical
Cdk14 [2] = biological target: T1, Cdk14; assay: Protein labeling and mass spectrometry analysis of recombinant Cdk14; type: binding; details: 10-fold molar excess of compound, 2 hours, room temperature
Target sequence in this assay (O94921 whole entry, the tested form may be a part): as above
Protocol: For each analysis, 5 μg protein was injected onto a self-packed reversed phase column ( 1/32″ O.D.×500 um I.D., 5 cm of POROS 50R2 resin). After desalting for four minutes, protein was eluted with an HPLC gradient (0-100% B in 4 minutes, A=0.2M acetic acid in water, B=0.2 M acetic acid in acetonitrile, flow rate=10 μL/min) into an LTQ ion trap mass spectrometer (ThermoFisher). […] After reconstituting in 50% acetonitrile, 1% formic acid, 100 mM ammonium acetate, peptides were analyzed by CE-MS using a ZipChip CE system and autosampler interfaced to a QExactive HF mass spectrometer.^7 (ThermoFisher Scientific, San Jose, CA). Peptide solution was loaded for 30 seconds and separation performed at 500 V/cm on an HR chip for 10 minutes with a background electrolyte consisting of 1% formic acid in 50% acetonitrile. Pressure assist was utilized and started at 1 minute. The mass spectrometer was operated in data dependent mode and subjected the 5 most abundant ions in each MS scan (60 k resolution, 1E6 target, lock mass enabled) to MS/MS (15 k resolution, 2E5 target, 100 ms max inject time). Dynamic exclusion was enabled with a repeat count of 1 and an exclusion time of 6 seconds. MS/MS data was extracted to .mgf using mulitplierz scripts^8,9 and searched against a forward-reverse human NCBI refseq database using Mascot version 2.2. […]

CDK12 = CDK12 (Homo sapiens (Human), UniProt Q9NYV4); assay: Cellular pull down with biotinylated probe, CDK12; type: cell-based; details: HEK293 cells, 4 hours treatment; Y/N/slight
CDK12, sequence (Q9NYV4 whole entry, the tested form may be a part): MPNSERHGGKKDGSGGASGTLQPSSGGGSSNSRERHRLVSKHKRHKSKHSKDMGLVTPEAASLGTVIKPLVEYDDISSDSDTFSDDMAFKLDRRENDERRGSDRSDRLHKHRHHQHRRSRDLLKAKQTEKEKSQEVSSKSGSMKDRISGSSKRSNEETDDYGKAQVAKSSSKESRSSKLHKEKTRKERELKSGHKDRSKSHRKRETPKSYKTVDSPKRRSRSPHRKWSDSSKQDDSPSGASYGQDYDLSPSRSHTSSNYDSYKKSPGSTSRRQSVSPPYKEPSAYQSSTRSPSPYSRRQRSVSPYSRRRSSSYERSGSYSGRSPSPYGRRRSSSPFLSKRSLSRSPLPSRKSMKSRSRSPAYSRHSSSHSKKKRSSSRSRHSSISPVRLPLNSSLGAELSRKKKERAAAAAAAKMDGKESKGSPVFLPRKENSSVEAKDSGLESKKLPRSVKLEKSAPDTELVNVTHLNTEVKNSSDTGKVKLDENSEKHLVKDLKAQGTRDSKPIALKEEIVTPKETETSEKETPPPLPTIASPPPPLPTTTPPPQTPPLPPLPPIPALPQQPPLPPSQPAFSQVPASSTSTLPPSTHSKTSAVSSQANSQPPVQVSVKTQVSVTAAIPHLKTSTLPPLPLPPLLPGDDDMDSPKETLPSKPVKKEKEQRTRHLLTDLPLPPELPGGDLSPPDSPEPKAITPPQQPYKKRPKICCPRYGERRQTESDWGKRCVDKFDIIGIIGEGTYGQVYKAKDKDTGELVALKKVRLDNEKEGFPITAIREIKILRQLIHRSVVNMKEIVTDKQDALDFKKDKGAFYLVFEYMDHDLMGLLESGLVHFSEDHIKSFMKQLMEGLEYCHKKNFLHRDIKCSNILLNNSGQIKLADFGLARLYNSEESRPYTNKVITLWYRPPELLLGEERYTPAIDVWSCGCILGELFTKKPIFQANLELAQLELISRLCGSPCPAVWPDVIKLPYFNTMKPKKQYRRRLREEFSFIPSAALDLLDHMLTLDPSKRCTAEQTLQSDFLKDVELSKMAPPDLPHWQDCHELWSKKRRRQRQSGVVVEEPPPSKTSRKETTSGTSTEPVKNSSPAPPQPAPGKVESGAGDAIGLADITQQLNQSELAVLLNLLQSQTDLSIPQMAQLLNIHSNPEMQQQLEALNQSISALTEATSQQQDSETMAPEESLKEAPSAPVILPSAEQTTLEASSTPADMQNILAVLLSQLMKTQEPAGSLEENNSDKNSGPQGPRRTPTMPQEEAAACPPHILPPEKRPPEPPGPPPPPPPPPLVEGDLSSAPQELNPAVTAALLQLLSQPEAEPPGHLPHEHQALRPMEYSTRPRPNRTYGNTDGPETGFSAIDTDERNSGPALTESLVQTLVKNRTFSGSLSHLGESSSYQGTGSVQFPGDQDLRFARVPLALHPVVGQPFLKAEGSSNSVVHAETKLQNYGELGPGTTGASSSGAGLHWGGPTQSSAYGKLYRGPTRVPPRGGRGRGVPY
Protocol: HEK293 cells overexpressing a Cdk14-flag fusion protein were treated with candidate compounds for 4 hours. Cells were washed with PBS, harvested and lysed in Pierce IP buffer with protease and phosphatase inhibitors (Roche). […] To enhance pulldown, lysates were incubated at room temperature for an additional 2 hours. Lysates were then incubated with streptavidin agarose (Thermo scientific, cat. #20349) for 2 hours at 4° C. Beads were then washed 3 times with Pierce IP buffer, then boiled at 95° C. for 5 minutes in 2× LDS+10% β-mercaptoethanol. Proteins of interest engaged by the biotinylated compound were then assessed using western blotting. The results of the cellular pulldown protocol are provided in Tables 1 and 2A, 2B, 2C, and 2D below (Columns titled “CDK2 pulldown,” “CDK9 pulldown,” “CDK12 pulldown blocked,” “CDK14 pulldown blocked,” and “Cellular Potency Pulldown.”)

Cdk14/CycY = Cdk14/CycY (Homo sapiens (Human), UniProt O94921); assay: Lanthascreen Eu kinase binding assay for Cdk14/CycY with 30 minute pre-incubation; details: 30 minute pre-incubation of kinase with compound
Cdk14/CycY, sequence (O94921 whole entry): as the sequence (O94921 whole entry, the tested form may be a part) above
Cdk14/CycY, sequence (Q8ND76 whole entry partner): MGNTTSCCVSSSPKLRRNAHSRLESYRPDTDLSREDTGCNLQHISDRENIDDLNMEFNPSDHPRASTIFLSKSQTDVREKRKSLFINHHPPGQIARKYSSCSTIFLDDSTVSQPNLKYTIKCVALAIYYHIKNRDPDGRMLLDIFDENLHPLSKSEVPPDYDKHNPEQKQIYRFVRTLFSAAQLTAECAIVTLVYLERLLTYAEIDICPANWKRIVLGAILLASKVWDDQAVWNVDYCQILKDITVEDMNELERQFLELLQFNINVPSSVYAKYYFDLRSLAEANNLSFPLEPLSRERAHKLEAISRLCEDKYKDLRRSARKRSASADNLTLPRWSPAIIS
Protocol: Lanthascreen Eu kinase binding assays were conducted for Cdk14/CycY largely as performed in the commercial assay service by Life Technologies, but included a 30 minute pre-incubation step of the kinase with candidate compounds to facilitate covalent bond formation.

CDK16/CycY = CDK16/CycY (Homo sapiens (Human), UniProt Q00536); assay: Lanthascreen Eu kinase binding assay for CDK16/CycY
CDK16/CycY, sequence (Q00536 whole entry): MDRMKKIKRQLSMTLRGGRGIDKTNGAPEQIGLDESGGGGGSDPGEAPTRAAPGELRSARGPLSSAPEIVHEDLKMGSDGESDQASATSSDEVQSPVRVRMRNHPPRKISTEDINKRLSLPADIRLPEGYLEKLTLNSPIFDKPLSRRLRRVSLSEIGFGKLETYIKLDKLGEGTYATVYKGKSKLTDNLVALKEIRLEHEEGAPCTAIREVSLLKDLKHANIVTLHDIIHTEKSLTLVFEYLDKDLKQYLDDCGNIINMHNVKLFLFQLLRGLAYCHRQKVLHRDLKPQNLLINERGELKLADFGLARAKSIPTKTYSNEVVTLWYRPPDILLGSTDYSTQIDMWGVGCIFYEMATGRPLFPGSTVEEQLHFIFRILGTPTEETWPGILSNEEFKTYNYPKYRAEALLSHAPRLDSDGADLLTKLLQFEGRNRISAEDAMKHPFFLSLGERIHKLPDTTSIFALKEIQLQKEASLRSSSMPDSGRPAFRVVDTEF
CDK16/CycY, sequence (Q8ND76 whole entry partner): as the sequence (Q8ND76 whole entry partner) above
Protocol: Lanthascreen Eu kinase binding assays were conducted for CDK16/CycY at Life Technologies.

Cdk14 [3] = biological target: T1, Cdk14; assay: Cdk14 33P kinase assay (Reaction Biology Corp.); type: biochemical
Target sequence in this assay (O94921 whole entry, looked up, the tested form may be a part): as the sequence (O94921 whole entry, the tested form may be a part) above
Target sequence in this assay (Q8ND76 whole entry partner, looked up, the tested form may be a part): as the sequence (Q8ND76 whole entry partner) above

[4] = read-out: IC50 CDK2 Z′LYTE kinase assay
[5] = read-out: IC50 CDK14 binding by Lanthascreen
[6] = read-out: IC50 CDK16 Lanthascreen binding

| SMILES | IC50 (HCT116 cells) | IC50 (HCT116 cells; Homo sapiens, HCT-116, 72 h) | CDK14 pulldown blocked (Cdk14 [1]) | Cellular Potency by Pulldown (Cdk14 [1]) | IC50 (CDK2/CycA; read-out: CDK2 IC50) | IC50 (CDK2/CycA; [4]) | MS labeling of CDK14* (Cdk14 [2]) | CDK12 pulldown blocked (CDK12) | IC50 (Cdk14/CycY; read-out: CDK14 IC50 (nM) LanthaScreen) | IC50 (Cdk14/CycY; [5]) | IC50 (CDK16/CycY; read-out: CDK16 IC50) | IC50 (CDK16/CycY; [6]) | IC50 (Cdk14 [3]) |
| --- | --- | --- | --- | --- | --- | --- | --- | --- | --- | --- | --- | --- | --- |
| CN(C)C/C=C/C(=O)Nc1cccc(S(=O)(=O)N2CCC(NC(=O)c3n[nH]cc3NC(=O)c3c(Cl)cc(Cl)cc3Cl)CC2)c1 [FMF-04-159-2, (E)-N-(1-((3-(4-(dimethylamino)but-2-enamido)phenyl)sulfonyl)piperidin-4-yl)-4-(2,4,6-trichlorobenzamido)-1H-pyrazole-3-carboxamide] | 450 nM | 450 nM | 500 nM | 500 nM | 8.2 nM | 10.1 nM | 100% | slight | 46.6 nM | 47 nM | 10.1 nM | 8.2 nM | 718 nM |
| C=CC(=O)Nc1cccc(CN2CCC(NC(=O)c3n[nH]cc3NC(=O)c3c(Cl)cccc3OC)CC2)c1 [FMF-04-161-1, N-(1-(3-acrylamidobenzyl)piperidin-4-yl)-4-(2-chloro-6-methoxybenzamido)-1H-pyrazole-3-carboxamide] |  | 9 nM |  | 100 nM |  | 50.2 nM |  |  |  | 11 nM |  | 12.8 nM | 557 nM |
| CCOc1cccc(Cl)c1C(=O)Nc1c[nH]nc1C(=O)NC1CCN(S(=O)(=O)c2cccc(NC(=O)/C=C/CN(C)C)c2)CC1 [FMF-05-118-1, (E)-4-(2-chloro-6-ethoxybenzamido)-N-(1-((3-(4-(dimethylamino)but-2-enamido)phenyl)sulfonyl)piperidin-4-yl)-1H-pyrazole-3-carboxamide] |  | 102 nM | 1000 nM | 1000 nM | 2.9 nM | 2.95 nM | 50% |  |  |  | 2.9 nM | 2.91 nM |  |
